Data published in ChEMBL document CHEMBL5370688, “Development of HC-258, a Covalent Acrylamide TEAD Inhibitor That Reduces Gene Expression and Cell Migration” (ACS Med Chem Lett, 2023).
Activity calls are given as the source filed them. The calls are words filed in the database; no cut-off is given here.

target: Transcriptional enhancer factor TEF-3 (Homo sapiens) (UniProt Q15561); experiment: Binding affinity to TEAD4 (unknown origin) assessed as change in aggregation temperature at 25 uM by DSLS thermal shift assay; conditions: not given
Sequence (Q15561 whole entry): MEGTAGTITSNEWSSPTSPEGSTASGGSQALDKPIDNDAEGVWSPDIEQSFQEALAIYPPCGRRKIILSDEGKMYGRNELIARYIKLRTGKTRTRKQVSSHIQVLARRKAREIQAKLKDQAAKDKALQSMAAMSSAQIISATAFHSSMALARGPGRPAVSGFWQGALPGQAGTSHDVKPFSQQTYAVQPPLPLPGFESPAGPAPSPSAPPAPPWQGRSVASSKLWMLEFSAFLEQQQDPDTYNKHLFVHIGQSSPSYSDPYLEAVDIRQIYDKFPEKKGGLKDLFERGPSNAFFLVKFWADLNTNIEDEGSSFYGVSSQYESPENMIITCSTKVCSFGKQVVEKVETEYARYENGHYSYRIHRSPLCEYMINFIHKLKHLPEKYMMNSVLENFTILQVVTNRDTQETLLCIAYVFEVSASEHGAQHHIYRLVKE

Compound	deltaT [°C]
CCCCCOc1cccc(Nc2cccc(NC(C)=O)c2)c1	2.5

test system: MDA-MB-231; experiment: Inhibition of TEAD in human MDA-MB-231 cells assessed as reduction in CTGF gene expression level at 10 uM measured after 48 hrs by SYBR green staining based RT-qPCR analysis; type: cell-based; conditions: not given

Compound	inhibition
C=CC(=O)Nc1ccccc1Nc1cccc(OCCCCC)c1	Active
CCCCCCc1cccc(Nc2cccc(NC(=O)CCl)c2)c1	Active
C=CC(=O)Nc1ccccc1Nc1cccc(CCCCCC)c1	Active
CCCCCOc1cccc(Nc2cccc(NC(C)=O)c2)c1	inactive
C=CC(=O)Nc1cccc(Nc2cccc(OCCCCC)c2)c1	Active
C=CC(=O)Nc1cccc(Nc2cccc(CCCCCC)c2)c1	Active

target: Transcriptional enhancer factor TEF-3 (Homo sapiens) (UniProt Q15561); experiment: Binding affinity to TEAD4 (unknown origin) assessed as covalent adduct formation at 0.3 mM incubated for 2 hrs by Agilent LC/MSD Time-of-Flight Mass Spectrometric analysis; conditions: not given

Compound	Activity
CCCCCOc1cccc(Nc2cccc(NC(=O)CCl)c2)c1	Active
CCCCCCc1cccc(Nc2ccccc2NC(=O)C=C(C)C)c1	inactive
CCCCCCc1cccc(Nc2cccc(NC(=O)C=C(C)C)c2)c1	inactive
CCCCCCc1cccc(Nc2cccc(NC(=O)CCl)c2)c1	Active
CCCCCOc1cccc(Nc2cccc(NC(C)=O)c2)c1	inactive
C=CC(=O)Nc1cccc(Nc2cccc(OCCCCC)c2)c1	Active
C=CC(=O)Nc1cccc(Nc2cccc(CCCCCC)c2)c1	Active
CCCCCCc1cccc(Nc2ccccc2NC(=O)CCl)c1	Active
CCCCCCc1cccc(Nc2cccc(NC(=O)C3CC3)c2)c1	inactive

target: Transcriptional enhancer factor TEF-3 (Homo sapiens) (UniProt Q15561); experiment: Binding affinity to TEAD4 (unknown origin) assessed as partial covalent adduct formation at 0.3 mM incubated for 2 hrs by Agilent LC/MSD Time-of-Flight Mass Spectrometric analysis; conditions: not given

Compound	Activity
C=CC(=O)Nc1ccccc1Nc1cccc(OCCCCC)c1	Active
C=CC(=O)Nc1ccccc1Nc1cccc(CCCCCC)c1	Active

target: Transcriptional enhancer factor TEF-3 (Homo sapiens) (UniProt Q15561); experiment: Displacement of bodipy-PA from TEAD4 (unknown origin) measured after 30 mins by FP assay relative to control; conditions: not given

Compound	inhibition [%]
CCCCCCc1cccc(Nc2ccccc2NC(=O)CCl)c1	80

target: Transcriptional enhancer factor TEF-3 (Homo sapiens) (UniProt Q15561); experiment: Displacement of bodipy-PA from TEAD4 (unknown origin) measured after 30 mins by FP assay; conditions: not given

Compound	K [µM]
C=CC(=O)Nc1ccccc1Nc1cccc(OCCCCC)c1	> 20
CCCCCOc1cccc(Nc2cccc(NC(=O)CCl)c2)c1	3.1
CCCCCCc1cccc(Nc2cccc(NC(=O)CCl)c2)c1	1
C=CC(=O)Nc1ccccc1Nc1cccc(CCCCCC)c1	2.7
CCCCCOc1cccc(Nc2cccc(NC(C)=O)c2)c1	> 25
C=CC(=O)Nc1cccc(Nc2cccc(OCCCCC)c2)c1	3.6
C=CC(=O)Nc1cccc(Nc2cccc(CCCCCC)c2)c1	1.3
CCCCCCc1cccc(Nc2ccccc2NC(=O)CCl)c1	2.3

test system: MDA-MB-231; experiment: Inhibition of TEAD in human MDA-MB-231 cells assessed as reduction in AXL gene expression level at 10 uM measured after 48 hrs by SYBR green staining based RT-qPCR analysis; type: cell-based; conditions: not given

Compound	inhibition
C=CC(=O)Nc1ccccc1Nc1cccc(OCCCCC)c1	Active
CCCCCCc1cccc(Nc2cccc(NC(=O)CCl)c2)c1	inactive
C=CC(=O)Nc1ccccc1Nc1cccc(CCCCCC)c1	Active
CCCCCOc1cccc(Nc2cccc(NC(C)=O)c2)c1	inactive
C=CC(=O)Nc1cccc(Nc2cccc(OCCCCC)c2)c1	Active
C=CC(=O)Nc1cccc(Nc2cccc(CCCCCC)c2)c1	Active

test system: MDA-MB-231; experiment: Inhibition of TEAD in human MDA-MB-231 cells assessed as reduction in Cyr61 gene expression level at 10 uM measured after 48 hrs by SYBR green staining based RT-qPCR analysis; type: cell-based; conditions: not given

Compound	inhibition
C=CC(=O)Nc1ccccc1Nc1cccc(OCCCCC)c1	Active
CCCCCCc1cccc(Nc2cccc(NC(=O)CCl)c2)c1	Active
C=CC(=O)Nc1ccccc1Nc1cccc(CCCCCC)c1	Active
CCCCCOc1cccc(Nc2cccc(NC(C)=O)c2)c1	inactive
C=CC(=O)Nc1cccc(Nc2cccc(OCCCCC)c2)c1	Active
C=CC(=O)Nc1cccc(Nc2cccc(CCCCCC)c2)c1	Active

test system: MDA-MB-231; experiment: Inhibition of TEAD in human MDA-MB-231 cells assessed as reduction in NF2 gene expression level at 10 uM measured after 48 hrs by SYBR green staining based RT-qPCR analysis; type: cell-based; conditions: not given

Compound	inhibition
C=CC(=O)Nc1ccccc1Nc1cccc(OCCCCC)c1	Active
CCCCCCc1cccc(Nc2cccc(NC(=O)CCl)c2)c1	inactive
C=CC(=O)Nc1ccccc1Nc1cccc(CCCCCC)c1	Active
CCCCCOc1cccc(Nc2cccc(NC(C)=O)c2)c1	inactive
C=CC(=O)Nc1cccc(Nc2cccc(OCCCCC)c2)c1	Active
C=CC(=O)Nc1cccc(Nc2cccc(CCCCCC)c2)c1	Active

test system: MDA-MB-231; experiment: Cytotoxicity against human MDA-MB-231 cells at 10 uM; type: functional, cell-based; conditions: not given

Compound	Activity
C=CC(=O)Nc1ccccc1Nc1cccc(OCCCCC)c1	inactive
CCCCCOc1cccc(Nc2cccc(NC(=O)CCl)c2)c1	inactive
CCCCCCc1cccc(Nc2cccc(NC(=O)CCl)c2)c1	inactive
C=CC(=O)Nc1ccccc1Nc1cccc(CCCCCC)c1	Active
CCCCCOc1cccc(Nc2cccc(NC(C)=O)c2)c1	inactive
C=CC(=O)Nc1cccc(Nc2cccc(OCCCCC)c2)c1	inactive
C=CC(=O)Nc1cccc(Nc2cccc(CCCCCC)c2)c1	Active

test system: MDA-MB-231; experiment: Inhibition of cell migration in human MDA-MB-231 cells at 10 uM incubated for 48 hrs by xCELLigence RTCA system analysis; type: functional, cell-based; conditions: not given

Compound	inhibition
C=CC(=O)Nc1ccccc1Nc1cccc(OCCCCC)c1	Active
CCCCCOc1cccc(Nc2cccc(NC(C)=O)c2)c1	inactive
C=CC(=O)Nc1cccc(Nc2cccc(OCCCCC)c2)c1	Active
O=C(O)c1ccccc1Nc1cccc(C(F)(F)F)c1	inactive

test system: YAP1-TEAD1 (Homo sapiens); experiment: Inhibition of C-terminal NanoLuc-tagged TEAD1 (unknown origin)/C-terminal Halo-Tagged YAP1 (unknown origin) protein-protein interaction transfected in HEK293T cells at 10 uM using Nano-Glo as substrate pre incubated for 4 hrs followed by substrate addition and measured within 10 mins by NanoBRET …; conditions: time 250.0 min

Compound	inhibition
CCCCCOc1cccc(Nc2cccc(NC(C)=O)c2)c1	inactive
C=CC(=O)Nc1cccc(Nc2cccc(OCCCCC)c2)c1	inactive
